Patent US11958812B2, “3, 5-disubstituted pyridine and 3, 5-disubstituted pyridazine derivatives and pharmaceutical use of same” (MITSUBISHI TANABE PHARMA CORPORATION, priority 2018, dated 2024)

Legend:
human recombinant ATX = human recombinant ATX (Homo sapiens, UniProt Q13822); test: Enzyme inhibition test (choline release from LPC, Amplex UltraRed fluorescence); type: biochemical; conditions: 200 μM LPC substrate, 1 hr at room temperature, read-out: Experimental Example 1 human ATX IC50
Procedure: [Enzyme Inhibition Test Method]
A mixture (10 μL) of substrate and a set of choline quantification reagents (200 μM LPC (1-Oleoyl-sn-glycero-3-phosphocholine Sigma #L1881), 25 μM Amplex UltraRed reagent (Invitrogen), 0.1 U/mL Peroxidase (TOYOBO), 1 U/mL Choline oxidase (TOYOBO)), prepared with assay buffer (50 mM Tris (pH 8.0), 140 mM NaCl, 5 mM KCl, 1 mM CaCl2, 1 mM MgCl2, 0.1% BSA (Albumin from bovine serum, SIGMA), 0.0025% Triton X-100), enzyme (0.4 ng/μL human recombinant ATX) (10 μL), compound-containing solution (100 nL) were dispensed to a 384-well plate, incubated at room temperature for 1 hr and the fluorescence (Ex. 525 nm/Em. 598 nm) was measured. As the standard, choline chloride was used. With a blank free of enzyme was taken as inhibitory rate 100%, and a control free of inhibitor as inhibitory rate 0%, the inhibitory rate was calculated, and IC50 value was calculated from the inhibitory activity percentage at each concentration.

ATX activity in plasma = target: T1, ATX activity in plasma (Rattus norvegicus, UniProt Q64610); test: Measurement of ATX activity in plasma (ex vivo), rat single administration test; design: species or system male Wistar rat
T1 construct: from tissue; host or cells: plasma of male Wistar rats after oral dosing
Procedure: [Measurement of ATX Activity in Plasma (Ex Vivo)]
A compound administration solution prepared by wet pulverization in a mixer mill (type: MM400) for 10 min and adjusting to a given concentration with 0.5% aqueous carboxymethylcellulose solution was orally administered to male Wistar rat (5-week-old when used) at 5 mL/kg. Blood samples were collected from the cervical vein over time at 8 to 24 hr after administration. The blood was heparin-treated using a micro blood collection tube Capiject (CJ-AL, TERUMO CORPORATION), and the plasma was separated by centrifugation (4° C., 12,000 rpm, for 2 min), and preserved at −80° C. The rats after blood sampling were euthanized by exsanguination from the caudal vena cava under isoflurane inhalation anesthesia. The measurement of ATX activity in plasma was evaluated using the concentration of choline in the plasma, which was liberated from lysophosphatidylcholine (substrate of ATX) by the lysophospholipase D activity of ATX, as an index. An equal amount of 2× assay buffer (200 mM Tris-HCl pH9.0, 10 mM MgCl2, 1 M NaCl, 0.1% Triton X-100) is added to plasma (12 μL) and reacted at 37° C. for 6 hr. The reaction mixture (10 μL) after reaction for 6 hr and 45 μL of reagent R^1 solution (100 mM Tris-HCl pH 8.0, 0.5 mM TOOS, 10 U/mL peroxidase, 0.01% Triton X-100) were added and blended and absorbance at 550-700 nm was measured and used as a prevalue. As the standard, choline chloride was used. 1 mM choline chloride was diluted with 2× assay buffer up to 7 steps in 2-fold serial dilution, R^1 solution was treated similarly and the absorbance was measured. Furthermore, 15 μL of reagent R^2 solution (100 mM Tris-HCl pH 8.0, 1 mM 4-aminoantipyrine, 10 U/mL choline oxidase, 0.01% Triton X-100) was added, and the mixture was reacted at room temperature for 10 min, and absorbance at 550-700 nm was measured. The choline concentration per reaction time was calculated from the difference between the absorbance after R^2 solution addition and prevalue measured before R^2 addition and used as ATX activity value. inhibitory activity (%)=100×{1−[choline concentration (μM) of test substance administration group/choline concentration (μM) of solvent control group]} <calculating formula>

Structure (SMILES)	IC50 (human recombinant ATX)	Experimental Example 2 Rat single administration test (inhibitory activity (%) 8 hr after 1 mg/kg oral administration) (ATX activity in plasma)
O=C(O)CC[C@H]1CN(c2cncc(OC[C@H]3CC[C@H](C(F)(F)F)CC3)c2)CCO1 [Example 16, 3-[(2S)-4-(5-{[trans-4-(trifluoromethyl)cyclohexyl]methoxy}pyridin-3-yl)morpholin-2-yl]propanoic Acid]	13 nM	89%
O=C(O)CCCC1CCCN1c1cncc(OCc2ccc(OC(F)(F)F)cc2)c1 (centres unmarked) [Example 23, 4-[1-(5-{[4-(trifluoromethoxy)benzyl]oxy}pyridin-3-yl)pyrrolidin-2-yl]butanoic Acid]	11 nM	83%
O=C(O)CC[C@H]1CN(c2cncc(OCc3ccc(OC(F)(F)F)cc3F)c2)CCO1 [Example 82]	19 nM	89%
Cc1cc(OC(F)(F)F)ccc1COc1cncc(N2CCO[C@@H](CCC(=O)O)C2)c1 [Example 83]	8 nM	89%
O=C(O)CC[C@H]1CN(c2cncc(OCc3ccc(OC(F)(F)F)c(F)c3)c2)CCO1 [Example 84]	21 nM	89%
C[C@@H]1CN(c2cncc(OCc3ccc(OC(F)(F)F)cc3)c2)C[C@H](CCC(=O)O)O1 [Example 87]	16 nM	95%
O=C(O)CC1CCCN(c2cncc(OCc3ccc(OC(F)(F)F)cc3)c2)C1 (centres unmarked) [Example 92]	57 nM	73%
O=C(O)CCC1CN(c2cncc(OCc3ccc(OC(F)(F)F)cc3)c2)CCN1CC(F)(F)F (centres unmarked) [Example 93]	39 nM	70%

The next compounds have a lower IC50 (human recombinant ATX) than those just listed; values first:

IC50 (human recombinant ATX)	Experimental Example 2 Rat single administration test (inhibitory activity (%) 8 hr after 1 mg/kg oral administration) (ATX activity in plasma)	Structure (SMILES)
3 nM	83%	O=C(O)/C=C/C[C@@H]1COCCN1c1cncc(OCc2ccc(OC(F)(F)F)cc2)c1 [Example 22-1, (2E)-4-[(3R)-4-(5-{[4-(trifluoromethoxy)benzyl]oxy}pyridin-3-yl)morpholin-3-yl]-2-butenoic Acid]
1 nM	91%	COc1ccc(-c2cnnc(OCc3ccc(OC(F)(F)F)cc3)c2)nc1[C@H]1C[C@@H]1C(=O)O [Example 25]
5 nM	82%	COc1ccc(-c2cncc(OCc3ccc(OC(F)(F)F)cc3)c2)nc1[C@H]1C[C@@H]1C(=O)O [Example 26]
3 nM	80%	COc1ccc(-c2cncc(OCc3ccc(C(F)(F)F)cc3)c2)nc1[C@H]1C[C@@H]1C(=O)O [Example 29]
4 nM	90%	COc1ccc(-c2cnnc(OCc3ccc(OC(F)(F)F)cc3)c2)cc1C1CC1C(=O)O (centres unmarked) [Example 31]
7 nM	84%	O=C(O)c1ccc2c(c1)CCN2c1cncc(OCC2CCN(CC(F)(F)F)CC2)c1 [Example 39]
7 nM	81%	O=C(O)c1ccc(C2CN(c3cncc(OC[C@H]4CC[C@H](C(F)(F)F)CC4)c3)CCO2)cc1 (some centres unmarked) [Example 45]
2 nM	74%	COc1cc(C2CN(c3cncc(OC[C@H]4CC[C@H](C(F)(F)F)CC4)c3)CCO2)ccc1C(=O)O (some centres unmarked) [Example 46]
